Assay results from patent publication US4435387A, “Poly-cation salts of bis (or tris) 4-O-polyhexose-thio-arylene sulfate derivatives” (American Cyanamid Company, priority 1982, dated 1984).
Read-outs that look alike come from different tables or passages of the source.

Columns and labels:
[1] = system: late components of human complement (C3-C9); test: Test Code 035 (C3-C9 inhibitor), lysis of EAC 142; type: biochemical; settings: in vitro; twofold serial dilution assay, higher well number indicates higher activity
Procedure: (§1) Percent inhibition is calculated by comparison with simultaneous controls.
(§2) **Activity in wells, a serial dilution assay; higher well number indicate
(§3) higher activity. The serial dilutions are twofold.

[2] = target: T1, activated human C1 (Homo sapiens, UniProt P09871); test: Test Code 026 (C1 inhibitor); type: biochemical; settings: in vitro; twofold serial dilution assay, higher well number indicates higher activity
T1 construct: fluid-phase C2 destruction with C4 present
Procedure: as §1, §2, §3

[3] = system: complement activity of guinea pig sera; test: Guinea Pig Intraperitoneal Test (GPIP); type: in vivo; settings: Cavia porcellus, ip, 200 mg/kg i.p.
Procedure: as §1

[4] = system: hereditary angioneurotic edema; settings: literature reports; cited from earlier work
[5] = system: human serum total hemolytic complement activity; settings: in vitro and in vivo, judged by reduction in total hemolytic complement activity; Pathol. Biol. 25 (1977); cited from earlier work

T1 sequence (P09871 16-688): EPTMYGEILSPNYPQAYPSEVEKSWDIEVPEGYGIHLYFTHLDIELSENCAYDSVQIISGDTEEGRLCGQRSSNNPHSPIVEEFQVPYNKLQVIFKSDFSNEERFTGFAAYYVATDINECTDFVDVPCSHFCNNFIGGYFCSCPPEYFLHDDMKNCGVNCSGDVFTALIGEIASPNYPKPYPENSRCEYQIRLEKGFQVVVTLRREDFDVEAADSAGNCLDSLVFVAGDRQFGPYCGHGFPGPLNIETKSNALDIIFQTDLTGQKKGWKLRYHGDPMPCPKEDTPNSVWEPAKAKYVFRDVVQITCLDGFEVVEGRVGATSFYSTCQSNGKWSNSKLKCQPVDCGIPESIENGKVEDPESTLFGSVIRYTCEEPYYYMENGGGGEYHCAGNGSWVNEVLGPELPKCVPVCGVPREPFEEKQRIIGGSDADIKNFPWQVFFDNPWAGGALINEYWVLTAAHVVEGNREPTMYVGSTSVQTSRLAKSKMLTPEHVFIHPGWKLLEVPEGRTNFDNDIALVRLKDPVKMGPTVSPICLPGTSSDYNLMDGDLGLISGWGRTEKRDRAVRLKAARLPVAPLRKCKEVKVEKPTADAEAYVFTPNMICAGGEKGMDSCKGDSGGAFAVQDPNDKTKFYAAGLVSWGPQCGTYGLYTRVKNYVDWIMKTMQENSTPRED
T1 sequence (P00736 18-705 partner): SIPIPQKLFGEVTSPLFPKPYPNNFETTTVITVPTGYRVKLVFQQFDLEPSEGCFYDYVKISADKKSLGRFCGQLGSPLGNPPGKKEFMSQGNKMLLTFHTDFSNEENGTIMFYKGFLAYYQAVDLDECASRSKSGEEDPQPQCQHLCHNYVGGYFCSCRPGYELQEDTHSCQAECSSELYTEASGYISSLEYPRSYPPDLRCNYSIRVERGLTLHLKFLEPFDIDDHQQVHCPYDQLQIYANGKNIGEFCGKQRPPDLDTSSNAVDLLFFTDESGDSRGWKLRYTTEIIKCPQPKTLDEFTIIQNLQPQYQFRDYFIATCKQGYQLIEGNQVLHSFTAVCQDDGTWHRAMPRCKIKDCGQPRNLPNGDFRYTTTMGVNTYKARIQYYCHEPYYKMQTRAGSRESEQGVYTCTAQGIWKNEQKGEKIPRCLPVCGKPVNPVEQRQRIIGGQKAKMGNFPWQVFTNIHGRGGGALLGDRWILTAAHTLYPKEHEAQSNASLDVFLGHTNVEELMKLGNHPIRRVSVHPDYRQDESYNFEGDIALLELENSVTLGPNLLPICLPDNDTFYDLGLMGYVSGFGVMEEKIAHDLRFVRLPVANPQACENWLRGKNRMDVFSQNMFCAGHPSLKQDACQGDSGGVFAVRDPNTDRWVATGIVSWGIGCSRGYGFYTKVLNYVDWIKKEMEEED
T1 sequence (P02745 23-245 partner): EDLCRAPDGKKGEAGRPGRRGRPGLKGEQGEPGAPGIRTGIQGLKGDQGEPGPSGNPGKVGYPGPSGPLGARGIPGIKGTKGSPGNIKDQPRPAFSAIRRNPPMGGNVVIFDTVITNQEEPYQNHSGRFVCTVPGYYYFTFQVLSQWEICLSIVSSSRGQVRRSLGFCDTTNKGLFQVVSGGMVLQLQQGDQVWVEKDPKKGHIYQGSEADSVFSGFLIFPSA
T1 sequence (P02746 28-253 partner): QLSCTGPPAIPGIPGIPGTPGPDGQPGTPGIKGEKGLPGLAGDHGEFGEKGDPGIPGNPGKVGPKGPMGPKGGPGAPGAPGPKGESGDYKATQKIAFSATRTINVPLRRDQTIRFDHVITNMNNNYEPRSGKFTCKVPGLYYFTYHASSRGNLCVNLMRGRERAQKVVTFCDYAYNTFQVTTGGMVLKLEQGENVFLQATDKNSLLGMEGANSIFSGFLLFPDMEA
T1 sequence (P02747 29-245 partner): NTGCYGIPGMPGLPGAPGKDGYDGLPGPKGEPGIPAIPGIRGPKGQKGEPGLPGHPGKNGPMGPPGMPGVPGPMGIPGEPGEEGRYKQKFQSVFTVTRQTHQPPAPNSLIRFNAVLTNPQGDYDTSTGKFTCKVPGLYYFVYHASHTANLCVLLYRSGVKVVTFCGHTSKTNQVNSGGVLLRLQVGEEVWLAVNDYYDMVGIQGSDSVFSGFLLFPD

Compound	C-Late 035 Wells [1]	C-1 026 Wells [2]	other results
O=C(Nc1ccc(S[C@@H]2O[C@H](COS(=O)(=O)O)[C@@H](O[C@H]3O[C@H](COS(=O)(=O)O)[C@@H](OS(=O)(=O)O)[C@H](OS(=O)(=O)O)[C@H]3OS(=O)(=O)O)[C@H](OS(=O)(=O)O)[C@H]2OS(=O)(=O)O)cc1)c1cc(C(=O)Nc2ccc(S[C@@H]3O[C@H](COS(=O)(=O)O)[C@@H](O[C@H]4O[C@H](COS(=O)(=O)O)[C@@H](OS(=O)(=O)O)[C@H](OS(=O)(=O)O)[C@H]4OS(=O)(=O)O)[C@H](OS(=O)(=O)O)[C@H]3OS(=O)(=O)O)cc2)cc(C(=O)Nc2ccc(S[C@@H]3O[C@H](COS(=O)(=O)O)[C@@H](O[C@H]4O[C@H](COS(=O)(=O)O)[C@@H](OS(=O)(=O)O)[C@H](OS(=O)(=O)O)[C@H]4OS(=O)(=O)O)[C@H](OS(=O)(=O)O)[C@H]3OS(=O)(=O)O)cc2)c1.[Na].[Na].[Na].[Na].[Na].[Na].[Na].[Na].[Na].[Na].[Na].[Na].[Na].[Na].[Na].[Na].[Na].[Na].[Na].[Na].[Na] [Heneicosasodium N,N',N"-tris[4-[[2,3,6-tri-O-sulfo-4-O-(2,3,4,6-tetra-O-sulfo-α-D-glucopyranosyl)-β-D-glucopyranosyl]thio]phenyl]-1,3,5-benzenetricarboxamide]	2 Wells	8 Wells	–
O=S(=O)(O)OC[C@H]1O[C@@H](Sc2ccc(NS(=O)(=O)c3cc(S(=O)(=O)Nc4ccc(S[C@@H]5O[C@H](COS(=O)(=O)O)[C@@H](O[C@H]6O[C@H](COS(=O)(=O)O)[C@@H](OS(=O)(=O)O)[C@H](OS(=O)(=O)O)[C@H]6OS(=O)(=O)O)[C@H](OS(=O)(=O)O)[C@H]5OS(=O)(=O)O)cc4)cc(S(=O)(=O)Nc4ccc(S[C@@H]5O[C@H](COS(=O)(=O)O)[C@@H](O[C@H]6O[C@H](COS(=O)(=O)O)[C@@H](OS(=O)(=O)O)[C@H](OS(=O)(=O)O)[C@H]6OS(=O)(=O)O)[C@H](OS(=O)(=O)O)[C@H]5OS(=O)(=O)O)cc4)c3)cc2)[C@H](OS(=O)(=O)O)[C@@H](OS(=O)(=O)O)[C@@H]1O[C@H]1O[C@H](COS(=O)(=O)O)[C@@H](OS(=O)(=O)O)[C@H](OS(=O)(=O)O)[C@H]1OS(=O)(=O)O.[Na].[Na].[Na].[Na].[Na].[Na].[Na].[Na].[Na].[Na].[Na].[Na].[Na].[Na].[Na].[Na].[Na].[Na].[Na].[Na].[Na] [Heneicosasodium N,N',N"-tris[4-[[2,3,6-tri-O-sulfo-4-O-(2,3,4,6-tetra-O-sulfo-α-D-glucopyranosyl)-β-D-glucopyranosyl]thio]phenyl]-1,3,5-benzenetrisulfonamide]	3 Wells	9 Wells	–
O=S(=O)(O)OC[C@H]1O[C@@H](Sc2ccc(NS(=O)(=O)c3cc(S(=O)(=O)Nc4ccc(S[C@@H]5O[C@H](COS(=O)(=O)O)[C@@H](O[C@@H]6O[C@H](COS(=O)(=O)O)[C@@H](OS(=O)(=O)O)[C@H](OS(=O)(=O)O)[C@H]6OS(=O)(=O)O)[C@H](OS(=O)(=O)O)[C@H]5OS(=O)(=O)O)cc4)cc(S(=O)(=O)Nc4ccc(S[C@@H]5O[C@H](COS(=O)(=O)O)[C@@H](O[C@@H]6O[C@H](COS(=O)(=O)O)[C@@H](OS(=O)(=O)O)[C@H](OS(=O)(=O)O)[C@H]6OS(=O)(=O)O)[C@H](OS(=O)(=O)O)[C@H]5OS(=O)(=O)O)cc4)c3)cc2)[C@H](OS(=O)(=O)O)[C@@H](OS(=O)(=O)O)[C@@H]1O[C@@H]1O[C@H](COS(=O)(=O)O)[C@@H](OS(=O)(=O)O)[C@H](OS(=O)(=O)O)[C@H]1OS(=O)(=O)O.[Na].[Na].[Na].[Na].[Na].[Na].[Na].[Na].[Na].[Na].[Na].[Na].[Na].[Na].[Na].[Na].[Na].[Na].[Na].[Na].[Na] [Heneicosasodium N,N',N"-tris[4-[[2,3,6-tri-O-sulfo-4-O-(2,3,4,6-tetra-O-sulfo-β-D-glucopyranosyl)-β-D-glucopyranosyl]thio]phenyl]-1,3,5-benzenetrisulfonamide]	3 Wells	12 Wells	–
O=C(Nc1ccc(S[C@@H]2O[C@H](COS(=O)(=O)O)[C@@H](O[C@H]3O[C@H](COS(=O)(=O)O)[C@@H](OS(=O)(=O)O)[C@H](OS(=O)(=O)O)[C@H]3OS(=O)(=O)O)[C@H](OS(=O)(=O)O)[C@H]2OS(=O)(=O)O)cc1)c1ccc(C(=O)Nc2ccc(S[C@@H]3O[C@H](COS(=O)(=O)O)[C@@H](O[C@H]4O[C@H](COS(=O)(=O)O)[C@@H](OS(=O)(=O)O)[C@H](OS(=O)(=O)O)[C@H]4OS(=O)(=O)O)[C@H](OS(=O)(=O)O)[C@H]3OS(=O)(=O)O)cc2)cc1.[Na].[Na].[Na].[Na].[Na].[Na].[Na].[Na].[Na].[Na].[Na].[Na].[Na].[Na] [Tetradecasodium N,N'-bis[4-[[2,3,6-tri-O-sulfo-4-O-(2,3,4,6-tetra-O-sulfo-α-D-glucopyranosyl)-β-D-glucopyranosyl]thio]phenyl]-1,4-benzenedicarboxamide]	2 Wells	9 Wells	inhibition at 200 mg/kg ([3]; serum complement 2 hours after injection, read-out: In vivo Activity (Guinea Pig % Inhibition) Intraperitoneal, 2 hours): 87%; inhibition at 200 mg/kg ([3]; serum complement 6 hours after injection, read-out: In vivo Activity (Guinea Pig % Inhibition) Intraperitoneal, 6 hours): 90%; inhibition at 200 mg/kg ([3]; serum complement 24 hours after injection, read-out: In vivo Activity (Guinea Pig % Inhibition) Intraperitoneal, 24 hours): 62%
NCCCCCC(=O)O [epsilon-aminocaproic acid]	–	–	treatment of hereditary angioneurotic edema [4]: used with success
NC[C@H]1CC[C@H](C(=O)O)CC1 [tranexamic acid]	–	–	treatment of hereditary angioneurotic edema [4]: used with success
pentosan-polysulfoester	–	–	anticomplementary activity on human serum [5]: anticomplementary activity
